Earlier results in patent US20210128727A1, “A pharmaceutical combination for use in the treatment of cancer” (Universitätsmedizin der Johannes Gutenberg-Universität Mainz, priority 2018, published 2021).

Target: T1, TLR-9 (Mus musculus, UniProt Q9EQU3)
T1 construct: host or cells: mice (in vivo, endogenous protein)
T1 sequence (Q9EQU3 26-1032): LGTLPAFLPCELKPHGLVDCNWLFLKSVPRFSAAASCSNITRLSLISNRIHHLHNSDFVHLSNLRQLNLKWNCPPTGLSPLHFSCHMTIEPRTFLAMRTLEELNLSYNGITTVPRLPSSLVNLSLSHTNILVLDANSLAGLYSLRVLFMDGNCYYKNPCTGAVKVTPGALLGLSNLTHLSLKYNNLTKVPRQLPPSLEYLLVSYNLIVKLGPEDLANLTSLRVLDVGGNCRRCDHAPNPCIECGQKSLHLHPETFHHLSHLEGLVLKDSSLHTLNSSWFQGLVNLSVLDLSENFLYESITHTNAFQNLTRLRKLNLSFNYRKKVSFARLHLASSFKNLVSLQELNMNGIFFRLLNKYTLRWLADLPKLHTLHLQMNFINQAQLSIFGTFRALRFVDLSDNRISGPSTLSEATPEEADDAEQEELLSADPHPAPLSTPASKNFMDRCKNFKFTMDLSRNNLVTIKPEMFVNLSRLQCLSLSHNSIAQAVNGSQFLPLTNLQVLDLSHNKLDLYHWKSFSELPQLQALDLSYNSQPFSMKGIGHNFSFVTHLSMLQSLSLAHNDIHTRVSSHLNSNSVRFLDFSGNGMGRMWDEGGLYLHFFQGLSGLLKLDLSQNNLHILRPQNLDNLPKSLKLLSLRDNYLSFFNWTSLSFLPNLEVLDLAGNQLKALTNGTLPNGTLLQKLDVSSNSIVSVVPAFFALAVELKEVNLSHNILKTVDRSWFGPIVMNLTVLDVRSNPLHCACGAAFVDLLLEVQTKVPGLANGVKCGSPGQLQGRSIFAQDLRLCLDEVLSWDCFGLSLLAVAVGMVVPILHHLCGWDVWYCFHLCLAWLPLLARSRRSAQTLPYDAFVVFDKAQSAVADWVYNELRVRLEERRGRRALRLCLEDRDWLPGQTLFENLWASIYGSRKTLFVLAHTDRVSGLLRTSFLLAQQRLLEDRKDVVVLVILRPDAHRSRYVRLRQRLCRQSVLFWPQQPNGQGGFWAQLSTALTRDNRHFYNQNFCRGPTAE
Settings: mice

In the case of “5′-TCCATGACGTTCCTGATGCT-3′: CpG oligodeoxynucleotide TLR9 agonist produced at Metabion International AG (DNA, all phosphorothioate, methylation of C not given here; listed as Mus musculus)”, the “reversal of regulatory T cell-mediated CD8 tolerance” value is given as “efficiently reverse regulatory T cell-mediated CD8 tolerance”.
